Data from PubChem BioAssay AID1963970 (Molecular Pharmacology Branch, DTP, NCI, 2024).

System: 931267-113-T-J1-PDC multicell spheroid viability
Assay: Anticancer human tumor 931267-113-T-J1-PDC patient-derived colon adenocarcinoma cell line growth inhibition [PI3K]
Conditions: for IC50: curve of first compound; for viability, T/C: stronger effect = lower value; active means viability on the fitted dose curve at most 10% of control; inactive means the rest
Description: Combinatorial screen of targeted agents with the PI3K inhibitors inavolisib, alpelisib, duvelisib, and copanlisib in multi-cell type tumor spheroids
A high-throughput screen of multi-cell type tumor spheroids was designed to identify active combinations of targeted small molecules and PI3K pathway inhibitors. Complex spheroids include a stromal component modeled by human endothelial cells (HUVEC) and fibroblasts modeled by human mesenchymal stem cells (MSCs). The concentration ranges selected for each drug and investigational agent were based upon clinically achievable concentrations if the clinical Cmax of the agent was known.
Compounds. The drugs and investigational agents: inavolisib (NSC800729), alpelisib (NSC765974), duvelisib (NSC772469), copanlisib (NSC816437), ipatasertib (NSC767898), afuresertib (NSC778305), talazoparib (NSC767125), sapanisertib (NSC764658), selumetinib (NSC741078), tovorafenib (DAY101, NSC766906), vemurafenib (NSC761431), ravoxertinib (NSC781343), sotorasib (NSC818433), MRTX1133 (NSC 836407), abemaciclib (NSC 768073), palbociclib (NSC758247), venetoclax (NSC 766270), SY5609 (NSC837396), enzalutamide (NSC755605), and darolutamide (NSC825331), were obtained from the National Cancer Institute (NCI) Developmental Therapeutics Program Chemical Repository. The FDA-approved anticancer drug set is available from the NCI Developmental Therapeutics Program. […] The stock solutions were prepared in dimethyl sulfoxide (DMSO, Sigma-Aldrich, St. Louis, MO, cat. D2650) at 800-fold the tested concentration and stored at -70 degrees C prior to their use. All drugs and investigational agents were tested over a range starting from a high concentration at or near the clinical Cmax and decreasing in half-log increments. If the clinical Cmax for an agent had not been determined, the highest concentration tested was 10 microM.
Cell Culture. All cells were maintained in an incubator at 37 degrees C and 5% CO2 with 95% humidity. The PDC lines were cultured according to standard operating procedures established by the NCI PDMR (https://pdmr.cancer.gov/sops/default.htm). All PDCs were thawed and cultured in Matrigel-coated flasks prepared with a working solution of 1X Ham's F-12 nutrient mix, without supplementation (Invitrogen, Waltham, MA, cat. 11765054), 100 U/mL penicillin-streptomycin (Invitrogen, cat. 15140122), and 2.5% Matrigel (Corning Inc., Corning, NY, cat. 354248) for the first three passages. The 354836-022-R-J1-PDC, 475296-252-R-J1-PDC, and 997726-040-R-J2-PDC lines were cultured in 6A media, which includes advanced DMEM/F-12 (Thermo Fisher Scientific, cat. 12634028), 10 mM HEPES (Thermo Fisher Scientific, cat. 15630080), 1X GlutaMAX supplement (Thermo Fisher Scientific, cat. 35050061), 0.1 mg/mL primocin (InvivoGen, San Diego, CA, cat. ant-pm-2), 10% defined fetal bovine serum, heat inactivated (HyClone Laboratories Inc., Logan, UT, cat. SH30070.03HI), 50% L-WRN conditioned media (ATCC, cat. CRL-3276), 1.25 mM N-Acetyl-L-cysteine (Sigma-Aldrich, cat. A9165), 10 mM nicotinamide (Sigma-Aldrich, cat. N0636), 1X B-27 supplement (Thermo Fisher Scientific, cat. 17504044), 1X N-2 supplement (Thermo Fisher Scientific, cat. 17502048), and 10 microM Y-27632 dihydrochloride (Tocris Bioscience, Bristol, United Kingdom, cat. 1254). The 624824-186-R-J2-PDC line was cultured in 6C/Colon 1B media, which includes all 6A media components plus 50 ng/mL human EGF recombinant protein (Thermo Fisher Scientific, cat. PHG0311). […]

[1] = second compound 0.0316 µM, first compound 0.0316 µM
[2] = second compound 0.0316 µM, first compound 0.1 µM
[3] = second compound 0.0316 µM, first compound 0.316 µM
[4] = second compound 0.0316 µM, first compound 1 µM
[5] = second compound 0.0316 µM, first compound 3.16 µM
[6] = second compound 0.0316 µM, first compound 10 µM
[7] = second compound 0.1 µM, first compound 0.0316 µM
[8] = second compound 0.1 µM, first compound 0.1 µM
[9] = second compound 0.1 µM, first compound 0.316 µM
[10] = second compound 0.1 µM, first compound 1 µM
[11] = second compound 0.1 µM, first compound 3.16 µM
[12] = second compound 0.1 µM, first compound 10 µM
[13] = second compound 0.316 µM, first compound 0.0316 µM
[14] = second compound 0.316 µM, first compound 0.1 µM
[15] = second compound 0.316 µM, first compound 0.316 µM
[16] = second compound 0.316 µM, first compound 1 µM
[17] = second compound 0.316 µM, first compound 3.16 µM
[18] = second compound 0.316 µM, first compound 10 µM
[19] = second compound 1 µM, first compound 0.0316 µM
[20] = second compound 1 µM, first compound 0.1 µM
[21] = second compound 1 µM, first compound 0.316 µM
[22] = second compound 1 µM, first compound 1 µM
[23] = second compound 1 µM, first compound 3.16 µM
[24] = second compound 1 µM, first compound 10 µM
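Further: viability read 7 days after compound addition.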

CCCS(=O)(=O)Nc1ccc(F)c(C(=O)c2c[nH]c3ncc(-c4ccc(Cl)cc4)cc23)c1F + COc1c(OCCCN2CCOCC2)ccc2c3n(c(=NC(=O)c4cnc(N)nc4)nc12)CCN3
< 0.0316 µM: IC50 (second compound 1 µM)
active: viability, T/C (second compound 0.00316 µM, first compound 10 µM) 5.18% | viability, T/C (second compound 0.01 µM, first compound 10 µM) 5.04% | viability, T/C [6] 8.61% | viability, T/C [12] 9.09% | viability, T/C [18] 8.55%
inactive: viability, T/C (second compound 0.00316 µM, first compound 0.0316 µM) 111% | viability, T/C (second compound 0.00316 µM, first compound 0.1 µM) 116% | viability, T/C (second compound 0.00316 µM, first compound 0.316 µM) 104% | viability, T/C (second compound 0.00316 µM, first compound 1 µM) 125% | viability, T/C (second compound 0.00316 µM, first compound 3.16 µM) 127% | viability, T/C (second compound 0.01 µM, first compound 0.0316 µM) 102% | viability, T/C (second compound 0.01 µM, first compound 0.1 µM) 101% | viability, T/C (second compound 0.01 µM, first compound 0.316 µM) 108% | viability, T/C (second compound 0.01 µM, first compound 1 µM) 109% | viability, T/C (second compound 0.01 µM, first compound 3.16 µM) 110% | viability, T/C [1] 87.8% | viability, T/C [2] 92.2% | viability, T/C [3] 93.3% | viability, T/C [4] 111% | viability, T/C [5] 101% | viability, T/C [7] 75.4% | viability, T/C [8] 68.6% | viability, T/C [9] 77.2% | viability, T/C [10] 85.2% | viability, T/C [11] 77.6% | viability, T/C [13] 55.8% | viability, T/C [14] 51.3% | viability, T/C [15] 59.2% | viability, T/C [16] 56.7% | viability, T/C [17] 57.2% | viability, T/C [19] 36.3% | viability, T/C [20] 39.5% | viability, T/C [21] 36.3% | viability, T/C [22] 41.4% | viability, T/C [23] 39.7% | viability, T/C [24] 10.2%
4.99 µM: IC50 (second compound 0.1 µM)
5.83 µM: IC50 (second compound 0.0316 µM)
6.3 µM: IC50 (second compound 0.00316 µM)
5.98 µM: IC50 (second compound 0.01 µM)
3.66 µM: IC50 (second compound 0.316 µM)

C=CC(=O)N1CCN(c2nc(=O)n(-c3c(C)ccnc3C(C)C)c3nc(-c4c(O)cccc4F)c(F)cc23)C(C)C1 (centres undefined) + CC(Nc1ncnc2nc[nH]c12)c1cc2cccc(Cl)c2c(=O)n1-c1ccccc1
> 10 µM: IC50 (second compound 0.0316 µM) | IC50 (second compound 0.1 µM) | IC50 (second compound 0.316 µM) | IC50 (second compound 1 µM) | IC50 (second compound 3.16 µM) | IC50 (second compound 10 µM)
inactive: viability, T/C [1] 97.5% | viability, T/C [2] 103% | viability, T/C [3] 96.6% | viability, T/C [4] 111% | viability, T/C [5] 107% | viability, T/C [6] 107% | viability, T/C [7] 110% | viability, T/C [8] 113% | viability, T/C [9] 107% | viability, T/C [10] 111% | viability, T/C [11] 117% | viability, T/C [12] 94.2% | viability, T/C [13] 112% | viability, T/C [14] 109% | viability, T/C [15] 116% | viability, T/C [16] 107% | viability, T/C [17] 114% | viability, T/C [18] 96.5% | viability, T/C [19] 108% | viability, T/C [20] 109% | viability, T/C [21] 99.5% | viability, T/C [22] 105% | viability, T/C [23] 111% | viability, T/C [24] 88.3% | viability, T/C (second compound 3.16 µM, first compound 0.0316 µM) 104% | viability, T/C (second compound 3.16 µM, first compound 0.1 µM) 101% | viability, T/C (second compound 3.16 µM, first compound 0.316 µM) 93.5% | viability, T/C (second compound 3.16 µM, first compound 1 µM) 99.9% | viability, T/C (second compound 3.16 µM, first compound 3.16 µM) 107% | viability, T/C (second compound 3.16 µM, first compound 10 µM) 87% | viability, T/C (second compound 10 µM, first compound 0.0316 µM) 94.9% | viability, T/C (second compound 10 µM, first compound 0.1 µM) 96.8% | viability, T/C (second compound 10 µM, first compound 0.316 µM) 107% | viability, T/C (second compound 10 µM, first compound 1 µM) 98.1% | viability, T/C (second compound 10 µM, first compound 3.16 µM) 106% | viability, T/C (second compound 10 µM, first compound 10 µM) 102%
